Reference: the supplement of paper PMC9663587

What was measured:
Test in all cases: area over the GR curve, 72 h; higher = more effect;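 further: Dye Drop or Deep Dye Drop imaging of viable cells in 384-well plates (Hoechst nuclei, LIVE/DEAD dye), nine half-log doses, GR normalized to DMSO controls and time-zero plates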
CAL120 = test system: CAL120
HCC1143 = test system: HCC1143
HCC1569 = test system: HCC1569
HCC1954 = test system: HCC1954
MDAMB436 = test system: MDAMB436
MDAMB453 = test system: MDAMB453
PDX1258 = test system: PDX1258
PDX1328 = test system: PDX1328
SUM149 = test system: SUM149
SUM229PE = test system: SUM229PE
T47D = test system: T47D

Structure (SMILES)	area over the GR curve (CAL120) [GR]	area over the GR curve (HCC1143) [GR]	area over the GR curve (HCC1569) [GR]	area over the GR curve (HCC1954) [GR]	area over the GR curve (MDAMB436) [GR]	area over the GR curve (MDAMB453) [GR]	area over the GR curve (PDX1258) [GR]	area over the GR curve (PDX1328) [GR]	area over the GR curve (SUM149) [GR]	area over the GR curve (SUM229PE) [GR]	area over the GR curve (T47D) [GR]	area over the GR curve (CAL120; main component drawn) [GR]	area over the GR curve (HCC1143; main component drawn) [GR]	area over the GR curve (HCC1954; main component drawn) [GR]	area over the GR curve (MDAMB436; main component drawn) [GR]	area over the GR curve (MDAMB453; main component drawn) [GR]	area over the GR curve (PDX1258; main component drawn) [GR]	area over the GR curve (PDX1328; main component drawn) [GR]	area over the GR curve (SUM149; main component drawn) [GR]	area over the GR curve (T47D; main component drawn) [GR]
NC(=O)Nc1cc(-c2cccc(F)c2)sc1C(=O)N[C@H]1CCCNC1 [AZD7762] (max 10 µM)	0.492	0.621	0.772	0.515	0.65	0.853	0.909	0.828	0.657	0.588	-0.0211	–	–	–	–	–	–	–	–	–
Cc1nc(NC(=O)N2CCC[C@H]2C(N)=O)sc1-c1ccnc(C(C)(C)C(F)(F)F)c1 [Alpelisib/BYL719] (max 10 µM)	0.0922	0.174	0.0913	0.264	0.0552	0.335	0.0534	0.241	0.0367	0.128	0.455	–	–	–	–	–	–	–	–	–
CN(C)C/C=C/C(=O)Nc1ccc(O[C@@H]2CCC[C@@H](Nc3ncc(Cl)c(-c4c[nH]c5ccccc45)n3)C2)cc1 [BSJ-01-175] (max 10 µM)	0.667	0.684	0.907	0.66	0.82	1.08	1.3	0.898	0.747	0.745	0.537	–	–	–	–	–	–	–	–	–
CC(=O)c1c(C)c2cnc(Nc3ccc(N4CCN(CCOCCOCCOCCNC(=O)COc5cccc6c5C(=O)N(C5CCC(=O)NC5=O)C6=O)CC4)cn3)nc2n(C2CCCC2)c1=O (stereo unspecified) [BSJ-03-123] (max 10 µM)	0.16	0.265	0.183	0.33	0.0446	0.267	0.0283	0.31	0.293	0.286	0.746	–	–	–	–	–	–	–	–	–
CC(C)Nc1cc(-c2c[nH]c(C(=O)N[C@H](CO)c3cccc(Cl)c3)c2)c(Cl)cn1 [BVD523] (max 10 µM)	0.108	0.27	-0.026	0.242	0.0948	0.0704	0.149	0.102	0.233	0.279	0.185	–	–	–	–	–	–	–	–	–
Cc1c(N)nc([C@H](CC(N)=O)NC[C@H](N)C(N)=O)nc1C(=O)N[C@H](C(=O)N[C@H](C)[C@@H](O)[C@H](C)C(=O)N[C@H](C(=O)NCCc1nc(-c2nc(C(=O)NCCC[S+](C)C)cs2)cs1)[C@@H](C)O)[C@@H](OC1OC(CO)C(O)C(O)C1OC1OC(CO)C(O)C(OC(N)=O)C1O)c1cnc[nH]1 (stereo partly specified) [Bleomycin] (max 10 µM)	–	–	–	–	–	–	–	–	–	–	–	0.232	0.658	0.617	0.309	0.198	0.295	0.199	0.683	0.462
Nc1cc(C(F)(F)F)c(-c2cc(N3CCOCC3)nc(N3CCOCC3)n2)cn1 [Buparlisib/NVP-BKM120] (max 10 µM)	0.339	0.392	0.298	0.39	0.292	0.331	0.245	0.395	0.248	0.279	0.482	–	–	–	–	–	–	–	–	–
COc1cc2nccc(Oc3ccc(NC(=O)C4(C(=O)Nc5ccc(F)cc5)CC4)cc3)c2cc1OC [Cabozantinib] (max 10 µM)	0.0847	0.102	0.0157	-0.0867	0.0531	-0.0455	0.0204	0.0918	0.0344	0.0356	0.0578	–	–	–	–	–	–	–	–	–
COc1cc2c(Oc3ccc4[nH]c(C)cc4c3F)ncnc2cc1OCCCN1CCCC1 [Cediranib/AZD2171] (max 10 µM)	0.299	0.165	-0.0292	0.0591	0.161	0.126	0.0493	0.162	0.0456	0.0369	0.122	–	–	–	–	–	–	–	–	–
Cc1cc(Nc2ncc(Cl)c(Nc3ccccc3S(=O)(=O)C(C)C)n2)c(OC(C)C)cc1C1CCNCC1 [Ceritinib/LDK378] (max 10 µM)	0.337	0.285	0.124	0.124	0.415	0.461	0.199	0.416	0.249	0.0779	0.312	–	–	–	–	–	–	–	–	–
Cc1nc(Nc2ncc(C(=O)Nc3c(C)cccc3Cl)s2)cc(N2CCN(CCO)CC2)n1 [Dasatinib] (max 10 µM)	0.519	0.447	0.483	0.189	0.102	0.0776	0.714	0.819	0.52	0.529	0.193	–	–	–	–	–	–	–	–	–
COc1cccc2c1C(=O)c1c(O)c3c(c(O)c1C2=O)C[C@@](O)(C(=O)CO)C[C@@H]3O[C@H]1C[C@H](N)[C@H](O)[C@H](C)O1 [Doxorubicin] (max 3.162 µM)	0.697	0.718	0.492	0.73	0.706	0.786	0.754	0.637	0.754	0.453	0.919	–	–	–	–	–	–	–	–	–
COc1cc([C@@H]2c3cc4c(cc3[C@@H](O[C@@H]3O[C@@H]5CO[C@@H](C)O[C@H]5[C@H](O)[C@H]3O)[C@H]3COC(=O)[C@H]23)OCO4)cc(OC)c1O [Etoposide] (max 10 µM)	0.381	0.384	–	0.501	0.434	0.362	0.394	0.35	0.527	–	0.666	–	–	–	–	–	–	–	–	–
CO[C@H]1C[C@@H]2CC[C@@H](C)[C@@](O)(O2)C(=O)C(=O)N2CCCC[C@H]2C(=O)O[C@H]([C@H](C)C[C@@H]2CC[C@@H](OCCO)[C@H](OC)C2)CC(=O)[C@H](C)/C=C(\C)[C@@H](O)[C@@H](OC)C(=O)[C@H](C)C[C@H](C)/C=C/C=C/C=C/1C [Everolimus] (max 10 µM)	0.416	0.343	0.349	0.653	0.314	0.888	0.307	0.642	0.201	0.226	0.616	–	–	–	–	–	–	–	–	–
CCC(=O)Nc1ccc(C(=O)Nc2ccc(Nc3ncc4c(n3)N(C)c3ccc(C)cc3C(=O)N4C)cc2)cc1 [FMF-03-145-1]	0.34	0.389	1	1.15	0.465	0.392	1.12	0.808	0.462	1.06	0.979	–	–	–	–	–	–	–	–	–
COc1cc(N2CCN(C)CC2)ccc1Nc1ncc2c(n1)N(C)c1ccccc1C(=O)N2CC(F)(F)F [FMF-03-146-1]	-0.0113	0.0546	-0.0612	0.0296	-0.005	0.0207	-0.0674	0.071	-0.0043	0.0104	0.0652	–	–	–	–	–	–	–	–	–
CC[C@@]1(O)C(=O)OCc2c1cc1n(c2=O)Cc2cc3c(CN(C)C)c(O)ccc3nc2-1 [Topotecan] (max 10 µM)	0.913	0.904	–	0.869	0.877	0.926	0.867	1.07	0.941	–	0.959	–	–	–	–	–	–	–	–	–
